Data as given in patent US4791215A, “Derivatives of glutamic acid and aspartic acid” (priority 1984, dated 1988).

What was measured:
[1] = test system: CCK-8 induced contraction of guinea pig gall bladder; assay: Anti-CCK activity on gall bladder strips in vitro; settings: CCK-8 10 ng/ml
Protocol: ANTI-CCK ACTIVITY ON GUINEA PIG GALL BALDDERS IN VITRO
A longitudinal strip of guinea pig gall bladder was placed in a bath of isolated members in the presence of Krebs at a temperature of 32° C. with continuous oxygenation with an oxygen-CO2 mixture (95-5V/V).
The isometric contractions were detected by means of a force transducer and recorded.
The gall bladder was made to contract with the use of a 10 ng/ml concentration of CCK-8; the antagonistic activity of the compounds of the invention on the contracting effect of the CCK was determined with the use of different concentrations and the ED 50 value, that is the concentration in μg/ml of a compound which could antagonise 50% of the contracting effect of the CCK, was determined.

morphine analgesia = assay: Increase in analgesia of morphine, Tail Flick Test (Experiment 1); assay type: in vivo, rats; settings: for percentage variation of latency of pain sensation / M (10-90) ± SE, mean percentage variation of latency: compound 10 mg/kg i.p. + morphine 2 mg/kg; for M (10-90) ± SE, mean percentage variation of latency: mean 10-90 min; for Power ratio with respect to morphine alone: rat, in vivo
Protocol: Experiment No: 1 Increase in analgesia of analgesic-narcotic drugs in rats by the Tail Flick Test
The method is that described by Harris et al. (J. Pharmacol. Exp. Ther. 143 (1964) 141-148).
Male rats are used having a weight of about 150-200 g which have not fasted. A point on the tail is chosen and irradiated by a heat source (75° C.) and the time (in seconds) for which the animal remains without moving its tail is measured.
A maximum period of time of 8 seconds under the heat source is chosen, after which the animal is, in any case, removed to avoid tissue damage. The measurement is effected before (controls) and after treatment with the drugs.
The percentage variation is calculated for each individual animal by the following formula: [formula] The measurements were carried out 10, 20, 30, 45, 60 and 90 minutes after treatment with the analgesics.

[2] = test system: activity of analgesic drugs; assay: Hot-plate test, potentiation of analgesic drugs (Experiment 2); assay type: in vivo, rats
Protocol: Experiment No. 2: Hot-plate test
The method is that described by Eddy et al. (J. Pharmac. Exp. Ther. 107, 385 (1953)).
Groups of five male rats having a weight of about 150 g, and which have not fasted, are used.
The animals are placed on a metal plate on the bottom of a transparent cylinder, which is heated to 55°±1° C. by an azeotropic boiling mixture (acetone-ethyl formate 1:1).
The reaction time is defined as the interval which passes between the moment at which the animal is placed on the hot-plate and the moment at which it either licks its feet or tries to jump out of the cylinder. The control reaction time is measured 10 and 5 minutes before administration of the drugs and 10, 20, 30, 45, 60 and 90 minutes afterwards. The animals are left on the plate for a maximum period of 30 seconds.
The response to the administration of the product is considered positive if at least a doubling of the normal reaction time is seen. The results obtained are given in Tables 2a and 2b which record the groups treated, the doses administered and the stay times on the plate expressed as the number of positive responses over the number treated.

Row | Compound | ED50 (concentration antagonising 50% of contracting effect of CCK-8) [1] | percentage variation of latency of pain sensation (morphine analgesia; 10') | percentage variation of latency of pain sensation (morphine analgesia; 20') | percentage variation of latency of pain sensation (morphine analgesia; 30') | percentage variation of latency of pain sensation (morphine analgesia; 45') | percentage variation of latency of pain sensation (morphine analgesia; 60') | percentage variation of latency of pain sensation (morphine analgesia; 90') | M (10-90) ± SE, mean percentage variation of latency (morphine analgesia) | Power ratio with respect to morphine alone (morphine analgesia) | other results
1 | CCCN(CCC)C(=O)C(CCC(=O)O)NC(=O)c1ccc(I)cc1 (centres unmarked) [Compound C-18] | 60.3 µg/mL | 48.9 ± 31.0% | 65.9 ± 24.0% | 80.1 ± 9.0% | 59.1 ± 20.0% | 33.5 ± 20.0% | 81.4 ± 12.0% | 58.1% | 1.95 | 
2 | CCCCCCN(CCCCCC)C(=O)C(CCC(=O)O)NC(=O)c1ccc(Cl)c(Cl)c1 (centres unmarked) [Compound C-8] | 0.93 µg/mL | 67.4 ± 20.5% | 74.1 ± 15.8% | 80.0 ± 12.9% | 85.9 ± 14.1% | 87.1% | 60.4 ± 17.3% | 75.8 ± 10.6% | 2.54 | 
3 | CCCCN(CCCC)C(=O)CCC(NC(=O)c1ccc(Br)cc1)C(=O)O [Compound D-4] | > 200 µg/mL | 72.8 ± 15.0% | 95.8 ± 3.0% | 96.3 ± 4.0% | 85.5% | 87.5 ± 8.0% | 45.3 ± 6.0% | 80.5 ± 19.3% | 2.70 | 
4 | CCCCCN(CCCCC)C(=O)C(CCC(=O)O)NC(=O)c1ccc(C)c(C)c1 (centres unmarked) [Compound C-55] | 0.5 µg/mL | 89.3 ± 16% | 86.2 ± 12% | 94.4% | 100 ± 0% | 100 ± 0% | 81.7 ± 13% | 88.6 ± 12% | 2.97 | 
5 | CCCN(CCC)C(=O)C(CCC(=O)O)NC(=O)c1ccc(C)cc1 (centres unmarked) [Compound C-29] | 262 µg/mL | 48.7 ± 20% | 75.5% | 73.6 ± 11% | 70.0 ± 19% | 47.3 ± 23% | 6.0 ± 14% | 53.5% | 1.80 | 
6 | Cc1ccc(C(=O)NC(CCC(=O)O)C(=O)NC2CCCCC2)cc1C (centres unmarked) [Compound C-47] | 35.1 µg/mL | 24.5% | 63.5 ± 18% | 52.3 ± 17% | 80.1 ± 22% | 73.2 ± 17% | 49.3 ± 19% | 57.1 ± 20% | 1.92 | 
7 | Cc1ccc(C(=O)NC(CCC(=O)N(C)C)C(=O)O)cc1C [Compound D-12] | > 300 µg/mL | 45.4 ± 23% | 63.9 ± 15% | 84. ± 16% | 100 ± 0% | 78.5 ± 15% | 56.1 ± 22% | 71.3 ± 20% | 2.39 | 
8 | CCCCC1C(=O)N(c2ccccc2)N(c2ccc(O)cc2)C1=O (centres unmarked) [Oxyphenylbutazone, reference compound] |  |  |  |  |  |  |  |  |  | TOTAL positives ([2]; oxyphenylbutazone 50 mg/kg i.p. alone): 7 x/30; positive responses over number treated ([2]; oxyphenylbutazone 50 mg/kg i.p. alone, 10'): 2/5; positive responses over number treated ([2]; oxyphenylbutazone 50 mg/kg i.p. alone, 20'): 1/5; positive responses over number treated ([2]; oxyphenylbutazone 50 mg/kg i.p. alone, 30'): 2/5; positive responses over number treated ([2]; oxyphenylbutazone 50 mg/kg i.p. alone, 45'): 2/5; positive responses over number treated ([2]; oxyphenylbutazone 50 mg/kg i.p. alone, 60'): 0/5; positive responses over number treated ([2]; oxyphenylbutazone 50 mg/kg i.p. alone, 90'): 0/5
9 | CCCN(CCC)C(=O)C(CCC(=O)O)NC(=O)c1c(C)cc(C)cc1C (centres unmarked) [Compound C-33] | 131.7 µg/mL | -0.1 ± 12% | 30.9 ± 8% | 38.7% | 41.7 ± 16% | 48.7 ± 21% | 46.6 ± 12% | 34.4 ± 18% | 1.15 | 
10 | CN(C)C(=O)CCC(NC(=O)c1ccc(Cl)c(Cl)c1)C(=O)O [Compound D-1] | > 200 µg/mL | 75.0 ± 16.0% | 100.0 ± 0.0% | 100.0 ± 0.0% | 86.4 ± 14.0% | 100.0 ± 0.0% | 51.0 ± 21.0% | 85.4 ± 19.7% | 2.86 | 
11 | Propoxyphene [reference compound] |  |  |  |  |  |  |  |  |  | TOTAL positives ([2]; propoxyphene 10 mg/kg i.p. alone): 8 X/30; positive responses over number treated ([2]; propoxyphene 10 mg/kg i.p. alone, 10'): 1/5; positive responses over number treated ([2]; propoxyphene 10 mg/kg i.p. alone, 20'): 2/5; positive responses over number treated ([2]; propoxyphene 10 mg/kg i.p. alone, 30'): 2/5; positive responses over number treated ([2]; propoxyphene 10 mg/kg i.p. alone, 45'): 2/5; positive responses over number treated ([2]; propoxyphene 10 mg/kg i.p. alone, 60'): 1/5; positive responses over number treated ([2]; propoxyphene 10 mg/kg i.p. alone, 90'): 0/5; TOTAL positives ([2]; propoxyphene 15 mg/kg i.p. alone): 12 x/30; positive responses over number treated ([2]; propoxyphene 15 mg/kg i.p. alone, 10'): 2/5; positive responses over number treated ([2]; propoxyphene 15 mg/kg i.p. alone, 20'): 2/5; positive responses over number treated ([2]; propoxyphene 15 mg/kg i.p. alone, 30'): 3/5; positive responses over number treated ([2]; propoxyphene 15 mg/kg i.p. alone, 45'): 3/5; positive responses over number treated ([2]; propoxyphene 15 mg/kg i.p. alone, 60'): 1/5; positive responses over number treated ([2]; propoxyphene 15 mg/kg i.p. alone, 90'): 3/5
12 | CCC(=O)C(CC(C)N(C)C)(c1ccccc1)c1ccccc1 (centres unmarked) [Methadone, reference compound] |  |  |  |  |  |  |  |  |  | TOTAL positives ([2]; methadone 1 mg/kg i.p. alone): 8 X/30; positive responses over number treated ([2]; methadone 1 mg/kg i.p. alone, 10'): 1/5; positive responses over number treated ([2]; methadone 1 mg/kg i.p. alone, 20'): 2/5; positive responses over number treated ([2]; methadone 1 mg/kg i.p. alone, 30'): 1/5; positive responses over number treated ([2]; methadone 1 mg/kg i.p. alone, 45'): 2/5; positive responses over number treated ([2]; methadone 1 mg/kg i.p. alone, 60'): 1/5; positive responses over number treated ([2]; methadone 1 mg/kg i.p. alone, 90'): 1/5
13 | CC(=O)Oc1ccccc1C(=O)O [Acetyl Salicylic Acid, reference compound] |  |  |  |  |  |  |  |  |  | TOTAL positives ([2]; acetyl salicylic acid 100 mg/kg i.p. alone): 8 x/30; positive responses over number treated ([2]; acetyl salicylic acid 100 mg/kg i.p. alone, 10'): 1/5; positive responses over number treated ([2]; acetyl salicylic acid 100 mg/kg i.p. alone, 20'): 2/5; positive responses over number treated ([2]; acetyl salicylic acid 100 mg/kg i.p. alone, 30'): 2/5; positive responses over number treated ([2]; acetyl salicylic acid 100 mg/kg i.p. alone, 45'): 2/5; positive responses over number treated ([2]; acetyl salicylic acid 100 mg/kg i.p. alone, 60'): 0/5; positive responses over number treated ([2]; acetyl salicylic acid 100 mg/kg i.p. alone, 90'): 1/5
